Assay results: patent US7713985B2, “Adenosine Aa2 receptor antagonists” (Schering Corporation, priority 2006, dated 2010)

Target: T1, Human A2a Adenosine Receptor (Homo sapiens, UniProt P29274)
T1 construct: purchased Receptor Biology, Inc., Beltsville, Md; RB-HA2a
Test: Human adenosine A2a receptor competition binding assay
Details: [3H]-SCH 58261 displacement, human A2a membranes
Method: Human Adenosine A2a and A1 Receptor Competition Binding Assay Protocol
A2a: Human A2a Adenosine Receptor membranes, Catalog #RB-HA2a, Receptor Biology, Inc., Beltsville, Md. Dilute to 17 μg/100 μl in membrane dilution buffer (see below).
Membrane dilution buffer: Dulbecco's Phosphate Buffered Saline (Gibco/BRL)+10 mM MgCl2.
Compound Dilution Buffer: Dulbecco's Phosphate Buffered Saline (Gibco/BRL)+10 mM MgCl2 supplemented with 1.6 mg/ml methyl cellulose and 16% DMSO. Prepared fresh daily.
A2a: [3H]-SCH 58261, custom synthesis, AmershamPharmacia Biotech, Piscataway, N.J. Stock is prepared at 1 nM in membrane dilution buffer. Final assay concentration is 0.5 nM.
A2a: To determine non-specific binding, add 100 nM CGS 15923 (RBI, Natick, Mass.). Working stock is prepared at 400 nM in compound dilution buffer.
Prepare 1 mM stock solutions of compounds in 100% DMSO. Dilute in compound dilution buffer. Test at 10 concentrations ranging from 3 μM to 30 pM. Prepare working solutions at 4× final concentration in compound dilution buffer.
Perform assays in deep well 96 well plates. Total assay volume is 200 μl. Add 50 μl compound dilution buffer (total ligand binding) or 50 μl CGS 15923 working solution (A2a non-specific binding) or 50 μl NECA working solution (A1 non-specific binding) or 50 μl of drug working solution. Add 50 μl ligand stock ([3H]-SCH 58261 for A2a, [3H]-DPCPX for A1). Add 100 μl of diluted membranes containing the appropriate receptor. Mix. Incubate at room temperature for 90 minutes. Harvest using a Brandel cell harvester onto Packard GF/B filter plates. Add 45 μl Microscint 20 (Packard), and count using the Packard TopCount Microscintillation Counter. Determine IC50 values by fitting the displacement curves using an iterative curve fitting program (Excel). Determine Ki values using the Cheng-Prusoff equation.

T1 sequence (P29274 whole entry): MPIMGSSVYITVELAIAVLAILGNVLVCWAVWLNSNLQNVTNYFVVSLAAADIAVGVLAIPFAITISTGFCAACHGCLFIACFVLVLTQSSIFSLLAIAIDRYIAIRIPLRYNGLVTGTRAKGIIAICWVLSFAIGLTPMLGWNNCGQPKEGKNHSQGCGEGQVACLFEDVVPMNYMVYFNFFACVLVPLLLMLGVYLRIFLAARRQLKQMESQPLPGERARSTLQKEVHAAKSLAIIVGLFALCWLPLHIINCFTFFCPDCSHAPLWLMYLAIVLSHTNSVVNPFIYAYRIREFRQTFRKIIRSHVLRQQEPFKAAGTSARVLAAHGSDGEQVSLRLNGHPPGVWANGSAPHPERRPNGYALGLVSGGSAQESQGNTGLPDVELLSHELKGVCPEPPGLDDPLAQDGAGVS

Structure (SMILES)	Ki [nM]
Nc1nc2ccccc2c2nn(Cc3cccc(Cl)c3)c(=O)n12 [Example 13]	4.7
Nc1nc2ccccc2c2nn(Cc3cccc(F)c3)c(=O)n12 [Example 12]	12.2
Nc1nc2ccccc2c2nn(Cc3c(Cl)cccc3Cl)c(=O)n12 [Example 8]	12
